Active and inactive are the calls of the source. The calls are words filed in the database; no cut-off is given here.
Assays:
NCI-H460 = assay: Growth inhibition of human NCI-H460 cells after 48 hrs by SRB assay; type: functional; conditions: NCI-H460, 48 h
SK-OV-3 = assay: Growth inhibition of human SKOV3 cells after 48 hrs by SRB assay; type: functional; conditions: SK-OV-3, 48 h
[1] = Inhibition of bovine brain tubulin polymerization preincubated for 15 mins followed by GTP addition measured after 20 mins by spectrophotometric method; set-up: species or system Bos taurus
Bos taurus = species: Bos taurus; assay: Inhibition of [3H]colchicine binding to bovine brain tubulin at 5 uM after 10 mins by scintillation counting method relative to control
DU-145 = assay: Growth inhibition of human DU145 cells after 48 hrs by SRB assay; type: functional; conditions: DU-145, 48 h
MCF7 [2] = assay: Induction of necrosis in human luc-GFP-mCherry-tagged MCF7 cells implanted in SCID-NOD mouse at 120 mg/kg, ip administered as single dose measured after 48 hrs by haematoxylin and eosin staining based microscopy; type: functional, organism-based
MCF7 [3] = assay: Induction of vascular disruption in human luc-GFP-mCherry-tagged MCF7 cells implanted in SCID-NOD mouse assessed as reduction in bioluminescence at 120 mg/kg, ip administered as single dose measured at 24 to 48 hrs post dose by luciferase reporter gene based imaging analysis; type: functional, organism-based
MCF7 [4] = assay: Induction of vascular disruption in human luc-GFP-mCherry-tagged MCF7 cells implanted in SCID-NOD mouse assessed as reduction in bioluminescence at 120 mg/kg, ip administered as single dose measured at 4 hrs post dose by luciferase reporter gene based imaging analysis relative to control; type: functional; set-up: scale not given: the % may be the effect or the level left

Compound `COc1ccc2c(c1)CCCC/C=C\2c1cc(OC)c(OC)c(OC)c1` has a GI50 (NCI-H460) of 431 nM, a GI50 (SK-OV-3) of 400 nM and an IC50 [1] of 3000 nM. It also gave an inhibition (Bos taurus) of 29% and a GI50 (DU-145) of 570 nM.
`COc1cc(C2=CCc3c2ccc(OC)c3OC)cc(OC)c1OC` showed a GI50 (NCI-H460) of 42200 nM, a GI50 (SK-OV-3) of 9460 nM and an IC50 [1] greater than 20000 nM. For the same compound, the GI50 (DU-145) was 34600 nM.
For `COc1ccc2c(c1O)CC=C2c1cc(OC)c(OC)c(OC)c1`, the GI50 (NCI-H460) was 388 nM, the GI50 (SK-OV-3) was 704 nM and the IC50 [1] was 11000 nM. It also gave an inhibition (Bos taurus) of 17% and a GI50 (DU-145) of 362 nM.
`COc1ccc2c(c1O)CCCC/C=C\2c1cc(OC)c(OC)c(OC)c1` showed a GI50 (NCI-H460) of 107 nM, a GI50 (SK-OV-3) of 81.1 nM and an IC50 [1] of 1200 nM. For the same compound, the inhibition (Bos taurus) was 78% and the GI50 (DU-145) was 105 nM.
With `COc1ccc2c(c1)CC=C2c1cc(OC)c(OC)c(OC)c1` the GI50 (NCI-H460) was 4020 nM, the GI50 (SK-OV-3) was 6150 nM and the IC50 [1] was greater than 20000 nM. It also gave a GI50 (DU-145) of 4660 nM.
With `COc1cc(/C2=C/CCCCc3c2ccc(OC)c3OP(=O)([O-])[O-])cc(OC)c1OC.[Na+].[Na+]` the Activity (MCF7 [2]) was “Active”, the GI50 (NCI-H460) was 26 nM and the GI50 (SK-OV-3) was 36.6 nM. For the same compound, the IC50 [1] was greater than 20000 nM, the Activity (MCF7 [3]) was “Active” and the GI50 (DU-145) was 41 nM. For the same compound, the Activity (MCF7 [4]) was 80%.
With `COc1cc(C2=CCc3c2ccc(OC)c3OP(=O)(O)O)cc(OC)c1OC` the GI50 (NCI-H460) was 1500 nM, the GI50 (SK-OV-3) was 334 nM and the IC50 [1] was greater than 20000 nM. The GI50 (DU-145) was 3340 nM.
For `COc1ccc(/C=C\c2cc(OC)c(OC)c(OC)c2)cc1OP(=O)(O)O` [FOSBRETABULIN], the Activity (MCF7 [2]) was “Active”, the GI50 (NCI-H460) was 2.82 nM and the GI50 (SK-OV-3) was 1.9 nM. For the same compound, the IC50 [1] was greater than 20000 nM, the GI50 (DU-145) was 3.36 nM and the Activity (MCF7 [4]) was 80%.
With `COc1cc(/C2=C/CCCCc3c2ccc(OC)c3OC)cc(OC)c1OC` the GI50 (NCI-H460) was 395 nM, the GI50 (SK-OV-3) was 512 nM and the IC50 [1] was 4500 nM. For the same compound, the inhibition (Bos taurus) was 31% and the GI50 (DU-145) was 448 nM.

— ChEMBL document CHEMBL4190184, “Synthesis and Biological Evaluation of Benzocyclooctene-based and Indene-based Anticancer Agents that Function as Inhibitors of Tubulin Polymerization” (Medchemcomm, 2016)
